In patent publication EP2649983A1, “Compounds which inhibit neuronal exocytosis (II)” (Lipotec, S.A., priority 2012, dated 2013):
Residues, ends and D or L forms follow the SMILES beside them. No end group written: not given here. *: point of attachment. Palmitoyl = CCCCCCCCCCCCCCCC(=O)*; NHhexadecyl = CCCCCCCCCCCCCCCCN*; Myristoyl = CCCCCCCCCCCCCC(=O)*

What was measured:
SNARE complex [1] = experiment: Inhibition of SNARE complex formation (competition versus SNAP-25), complex detected by ELISA; assay type: binding
Protocol: With the aim of determining the capacity of inhibition of the SNARE complex formation by the compounds of the invention, the competitive inhibition of the compounds compared to SNAP-25 was studied with regards to the formation of this complex. The proportion of SNARE complex formed was determined by the ELISA technique, using one of the proteins from the complex bound to GST. In a 96-well plate VAMP was immobilized (using a 0.037 µM solution) and subsequently the free spaces were blocked with BSA (3%). Parallel to this process, SNAP-25 bound to GST (0.0185 µM), syntaxin (0.037 µM) and a compound of the invention (2.5 mM and 0.5 mM compounds) were incubated for 1 hour. After incubation, the samples were transferred to the plate with immobilized VAMP and were incubated for 1 hour to allow the formation of the SNARE complex. Afterward, the plate was washed and the complex was detected by a primary antibody anti-GST (Antibody anti-GST epitope TAG, Fisher Cat. no:PA1-982A). The reading was carried out at a wavelength of 490 nm in a TECAN GENios spectrophotometric reader.
Table 4 showns the results of the competitive inhibition of the formation of the SNARE complex by the compounds of the invention versus SNAP-25. The percentage of inhibition of the formation of the complex is inversely proportional to the quantity of SNARE complex spectrophotometrically detected.

SNARE complex [2] = experiment: Inhibition of SNARE complex formation, complex detected by electrophoresis (SDS-PAGE); assay type: binding
Protocol: VAMP (6 µM), syntaxin (6 µM) and the compound of the invention (5 mM or 1 mM compounds) were incubated for 3 hours. Subsequently, SNAP-25 (0.6 µM) was added and the mixture was incubated for an additional 15 hours to allow the formation of the SNARE complex. After incubation, the loading buffer (Laemli Simple Buffer) was added and the mixture was analyzed by 10% acrylamide SDS-PAGE in gel. The amount of complex was determined by MediaCybernetics image analysis software Image-Pro Plus.
The percentage of inhibition of the formation of the complex is inversely proportional to the quantity of SNARE complex detected.

[3] = tested on: human neuroblastoma cell line; experiment: Release of noradrenaline induced by TPA/ionomycin in a neuroblastoma cell line, quantified by ELISA; assay type: cell-based; details: 60 minutes pre-incubation, TPA/ION = 100.00
Protocol: The induction of the release of noradrenaline with TPA (12-O-tetradecanoylphorbol-13-acetate)/lonomycin enables direct measurement of neuronal exocytosis. For the study of the inhibitory effect of the compounds of the invention on the release of noradrenaline, cells of a human neuroblastoma cell line were pre-incubated (1x10^6 cells/well) for 60 minutes with the compound of the invention (1 µM, 10 µM, 100 µM, 500 µM or 1 mM compounds), and afterward the release of noradrenaline was induced. The release of the noradrenaline neurotransmitter was induced by an 8 minute pretreatment with a solution of 12-O-tetradecanoylphorbol-13-acetate (TPA) 100 nM, which mobilized the intracellular vesicles which contained the neurotransmitter; followed by a 5 minute incubation with TPA/lonomycin (100 nM/10 µM), which induced the release of the neurotransmitter contained in these vesicles. […] For this, absorbance at 405 nm was measured in Thermo Scientific Multiskan Ascent equipment.
The blocking of the SNARE complex by the compounds of the invention lead to an inhibition of neuronal exocytosis and therefore, a decrease in the levels of released noradrenaline (Table 6).

[4] = concentration of compound 2.5 mM
[5] = concentration of compound 0.5 mM

CCCCCCCCCCCCCCCCNC(=O)[C@H](CCSC)NC(=O)[C@H](Cc1c[nH]c2ccccc12)NC(=O)[C@H](CCCNC(=N)N)NC(=O)[C@H](CCCCN)NC(=O)[C@H](CC(C)C)NC(=O)[C@H](CC(=O)O)NC(=O)[C@H](CCC(=O)O)NC(C)=O [Ac-SEQ ID NO:14-NH-(CH2)15-CH3] (Ac-EDLKRWM-NHhexadecyl)
% inhibition formation SNARE complex (SNARE complex [1]; [4]): 35%

CCCCCCCCCCCCCC(=O)N[C@@H](CC(N)=O)C(=O)N[C@@H](Cc1c[nH]cn1)C(=O)N[C@@H](Cc1ccccc1)C(=O)N[C@@H](CC(C)C)C(=O)N[C@@H](CC(N)=O)C(=O)N[C@@H](Cc1c[nH]c2ccccc12)C(=O)N[C@@H](CCSC)C(N)=O [Myr-SEQ ID NO:15-NH2] (Myristoyl-NHFLNWM-NH2)
% inhibition formation SNARE complex (SNARE complex [2]; concentration of compound 1 mM): 23%
% inhibition formation SNARE complex (SNARE complex [2]; concentration of compound 5 mM): 76%

CCCCCCCCCCCCCCCC(=O)N[C@@H](CCC(=O)O)C(=O)N[C@@H](Cc1c[nH]cn1)C(=O)N[C@@H](CC(C)C)C(=O)N[C@@H](CCCCN)C(=O)N[C@@H](CCC(N)=O)C(=O)N[C@@H](Cc1c[nH]c2ccccc12)C(=O)N[C@@H](CCSC)C(N)=O [Palm-SEQ ID NO:1-NH2] (Palmitoyl-EHLKQWM-NH2)
% inhibition formation SNARE complex (SNARE complex [1]; [5]): 21%
% inhibition formation SNARE complex (SNARE complex [1]; [4]): 47%

CCCCCCCCCCCCCCCC(=O)N[C@@H](CCC(N)=O)C(=O)N[C@@H](Cc1c[nH]cn1)C(=O)N[C@@H](CC(C)C)C(=O)N[C@@H](Cc1c[nH]cn1)C(=O)N[C@@H](CC(N)=O)C(=O)N[C@H](C(=O)N[C@@H](CCSC)C(N)=O)C(C)C [Palm-SEQ ID NO:3-NH2] (Palmitoyl-QHLHNVM-NH2)
% inhibition formation SNARE complex (SNARE complex [1]; [4]): 51%

CCCCCCCCCCCCCCCC(=O)N[C@@H](CCC(=O)O)C(=O)N[C@@H](CC(=O)O)C(=O)N[C@@H](CC(C)C)C(=O)N[C@@H](CCCCN)C(=O)N[C@@H](CCCNC(=N)N)C(=O)N[C@@H](Cc1c[nH]c2ccccc12)C(=O)N[C@@H](CCSC)C(N)=O [Palm-SEQ ID NO:14-NH2] (Palmitoyl-EDLKRWM-NH2)
% inhibition formation SNARE complex (SNARE complex [2]; concentration of compound 5 mM): 93%

CCCCCCCCCCCCCCCC(=O)N[C@@H](CC(N)=O)C(=O)N[C@@H](Cc1c[nH]cn1)C(=O)N[C@@H](Cc1ccccc1)C(=O)N[C@@H](CC(C)C)C(=O)N[C@@H](CC(N)=O)C(=O)N[C@@H](Cc1c[nH]c2ccccc12)C(=O)N[C@@H](CCSC)C(N)=O [Palm-SEQ ID NO:15-NH2] (Palmitoyl-NHFLNWM-NH2)
% inhibition formation SNARE complex (SNARE complex [2]; concentration of compound 1 mM): 22%
% inhibition formation SNARE complex (SNARE complex [2]; concentration of compound 5 mM): 74%
% inhibition formation SNARE complex (SNARE complex [1]; [4]): 21%

CCCCCCCCCCCCCCCC(=O)N[C@@H](CC(=O)O)C(=O)N[C@@H](Cc1c[nH]cn1)C(=O)N[C@@H](Cc1ccccc1)C(=O)N[C@@H](CCC(N)=O)C(=O)N[C@@H](CCC(N)=O)C(=O)N[C@@H](CCCNC(=N)N)C(=O)N[C@@H](CCSC)C(N)=O [Palm-SEQ ID NO:24-NH2] (Palmitoyl-DHFQQRM-NH2)
% inhibition formation SNARE complex (SNARE complex [2]; concentration of compound 1 mM): 17%
% inhibition formation SNARE complex (SNARE complex [2]; concentration of compound 5 mM): 66%
% inhibition formation SNARE complex (SNARE complex [1]; [5]): 36%

CCCCCCCCCCCCCCCC(=O)N[C@@H](CC(=O)O)C(=O)N[C@@H](Cc1c[nH]cn1)C(=O)N[C@@H](Cc1ccccc1)C(=O)N[C@@H](CC(C)C)C(=O)N[C@@H](CC(=O)O)C(=O)N[C@@H](Cc1c[nH]c2ccccc12)C(=O)N[C@@H](CCSC)C(N)=O [Palm-SEQ ID NO:25-NH2] (Palmitoyl-DHFLDWM-NH2)
% inhibition formation SNARE complex (SNARE complex [2]; concentration of compound 1 mM): 36%
% inhibition formation SNARE complex (SNARE complex [1]; [4]): 53%

CCCCCCCCCCCCCCCC(=O)N[C@@H](CC(=O)O)C(=O)N[C@@H](Cc1c[nH]cn1)C(=O)N[C@@H](Cc1ccccc1)C(=O)N[C@@H](CC(C)C)C(=O)N[C@@H](CC(N)=O)C(=O)N[C@@H](Cc1c[nH]c2ccccc12)C(=O)N[C@@H](CCSC)C(N)=O [Palm-SEQ ID NO:34-NH2] (Palmitoyl-DHFLNWM-NH2)
% inhibition formation SNARE complex (SNARE complex [1]; [4]): 51%

Ac-DHFLDWM-NH2 [Ac-SEQ ID NO:25-NH2]
% RELEASED NORADRENALINE Average ([3]; 1 µM): 99.59%
% RELEASED NORADRENALINE Average ([3]; 10 µM): 94.48%
% RELEASED NORADRENALINE Average ([3]; 100 µM): 74.79%
% RELEASED NORADRENALINE Average ([3]; 500 µM): 48.07%
% RELEASED NORADRENALINE Average ([3]; 1000 µM): 41.05%

Ac-DHFQQRM-NH2 [Ac-SEQ ID NO:24-NH2]
% RELEASED NORADRENALINE Average ([3]; 1 µM): 90.63%
% RELEASED NORADRENALINE Average ([3]; 10 µM): 97.06%
% RELEASED NORADRENALINE Average ([3]; 100 µM): 88.95%
% RELEASED NORADRENALINE Average ([3]; 500 µM): 78.11%
% RELEASED NORADRENALINE Average ([3]; 1000 µM): 67.90%

Ac-EDLKRWM-NH2 [Ac-SEQ ID NO:14-NH2]
% RELEASED NORADRENALINE Average ([3]; 10 µM): 84.96%
% RELEASED NORADRENALINE Average ([3]; 100 µM): 85.97%
% RELEASED NORADRENALINE Average ([3]; 1000 µM): 45.78%

Ac-EHLKQWM [Ac-SEQ ID NO:1-OH]
% inhibition formation SNARE complex (SNARE complex [1]; [5]): 29%

Ac-EHLKQWM-NH2 [Ac-SEQ ID NO:1-NH2]
% RELEASED NORADRENALINE Average ([3]; 1 µM): 96.14%
% RELEASED NORADRENALINE Average ([3]; 10 µM): 93.07%
% RELEASED NORADRENALINE Average ([3]; 100 µM): 79.59%
% RELEASED NORADRENALINE Average ([3]; 500 µM): 49.08%
% RELEASED NORADRENALINE Average ([3]; 1000 µM): 42.48%

EHLKQWM-NH2 [H-SEQ ID NO:1-NH2]
% inhibition formation SNARE complex (SNARE complex [1]; [5]): 30%
% inhibition formation SNARE complex (SNARE complex [1]; [4]): 58%
